Data from patent publication US20030229053A1, “Compounds and methods for the treatment or prevention of flavivirus infections” (Shire BioChem Inc., priority 2001, published 2003).

Target: recombinant HCV NS5B (Hepatitis C virus genotype 1b, UniProt P26663)
Test: biochemical
Details: flashplate, polyrA/biotinylated-oligo dT, 100 nM NS5B, 2 hrs at room temperature; read-out: RNA pol Assay 2 IC50 (μm)
Protocol: In vitro HCV RdRp Flashplate Scintillation Proximity Assay (Strep-Flash Assay) Used to Evaluate Analogues:
In brief, a 400 ng/μl polyrA solution (Amersham Pharmacia Biotech) was mixed volume-to-volume with 5′ biotin-oligo dT12 at 20 pmol/μl. The template and primers were denatured at 95 C for 5 minutes then incubated at 37 C for 10 minutes. Annealed template-primers were subsequently diluted in a Tris-HCl containing buffer and allowed to bind to streptavidin-coated flashplates overnight.

Chain of recombinant HCV NS5B (P26663 2420-3010 limits assumed): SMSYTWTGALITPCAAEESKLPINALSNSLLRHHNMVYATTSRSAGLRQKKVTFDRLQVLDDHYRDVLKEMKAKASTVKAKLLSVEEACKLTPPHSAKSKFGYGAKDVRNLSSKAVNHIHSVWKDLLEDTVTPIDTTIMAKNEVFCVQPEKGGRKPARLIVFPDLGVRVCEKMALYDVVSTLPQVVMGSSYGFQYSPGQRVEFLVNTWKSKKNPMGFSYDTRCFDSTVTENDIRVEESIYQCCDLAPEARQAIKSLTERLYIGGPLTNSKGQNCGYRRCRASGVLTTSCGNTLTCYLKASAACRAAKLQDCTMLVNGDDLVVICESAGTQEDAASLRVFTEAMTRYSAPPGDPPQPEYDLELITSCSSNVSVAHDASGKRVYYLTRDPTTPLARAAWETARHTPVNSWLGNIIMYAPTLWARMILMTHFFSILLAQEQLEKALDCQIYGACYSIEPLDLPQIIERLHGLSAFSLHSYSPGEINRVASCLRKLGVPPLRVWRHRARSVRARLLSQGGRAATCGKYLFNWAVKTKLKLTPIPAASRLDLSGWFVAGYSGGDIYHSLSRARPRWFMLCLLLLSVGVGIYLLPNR

| IC50 | Compound |
| --- | --- |
| < 5 µM | O=C(O)[C@H](Cc1ccccc1)N(Cc1ccc[n+]([O-])c1)C(=O)c1ccc(Cl)cc1Cl [Compound #210, 2-[(2,4-DICHLORO-BENZOYL)-(1-OXY-PYRIDIN-3-YLMETHYL)-AMINO]-3-PHENYL-PROPIONIC ACID] |
| 5 to 20 µM | O=C(O)[C@H](Cc1ccccc1)N(Cc1ccc(-c2cccc(C(F)(F)F)c2)s1)C(=O)c1ccc(Cl)cc1Cl [Compound #211, 2-{(2,4-Dichloro-benzoyl)-[5-(3-trifluoromethyl-phenyl)-thiophen-2-ylmethyl]-amino}-3-phenyl-propionic acid] |
| < 5 µM | N#Cc1cccc(CN(C(=O)c2ccc(Cl)cc2Cl)[C@@H](Cc2ccccc2)C(=O)O)c1 [compound #54, (2S)-2-[(3-Cyano-benzyl)-(2,4-dichloro-benzoyl)-amino]-3-phenyl-propionic acid] |
| < 5 µM | O=C(O)[C@H](Cc1ccccc1)N(Cc1cnc(-c2cccc([N+](=O)[O-])c2)s1)C(=O)c1ccc(Cl)cc1Cl [compound #64, 2-{(2,4-Dichloro-benzoyl)-[2-(3-nitro-phenyl)-thiazol-5-ylmethyl]-amino}-3-phenyl-propionic acid] |
| < 5 µM | O=C(O)[C@H](Cc1ccccc1)N(Cc1cnc(-c2cc3ccccc3o2)s1)C(=O)c1ccc(Cl)cc1Cl [compound #86, 2-[(2-Benzofuran-2-yl-thiazol-5-ylmethyl)-(2,4-dichloro-benzoyl)-amino]-3-phenyl-propionic acid] |
| < 5 µM | O=C(O)[C@H](Cc1ccccc1)N(Cc1cnc(Cl)s1)C(=O)c1ccc(Cl)cc1Cl [compound #140, (2s)-2-[(2-Chloro-thiazol-5-ylmethyl)-(2,4-dichloro-benzoyl)-amino]-3-phenyl-propionic acid] |
| < 5 µM | O=C(O)[C@H](Cc1ccccc1)N(Cc1ccc(-c2ccc(F)cc2)s1)C(=O)c1ccc(Cl)cc1Cl [compound #141, (2s)-2-{(2,4-Dichloro-benzoyl)-[5-(4-fluoro-phenyl)-thiophen-2-ylmethyl]-amino}-3-phenyl-propionic acid] |
| 5 to 20 µM | O=C(O)[C@H](Cc1ccccc1)N(Cc1sccc1-c1ccc(F)c(Cl)c1)C(=O)c1ccc(Cl)cc1Cl [compound #145, (2s)-2-[[3-(3-Chloro-4-fluoro-phenyl)-thiophen-2-ylmethyl]-(2,4-dichloro-benzoyl)-amino]-3-phenyl-propionic acid] |
| < 5 µM | O=C(O)[C@H](Cc1ccccc1)N(Cc1sccc1Br)C(=O)c1ccc(Cl)cc1Cl [compound #146, (2s)-2-[(3-Bromo-thiophen-2-ylmethyl)-(2,4-dichloro-benzoyl)-amino]-3-phenyl-propionic acid] |
| 5 to 20 µM | CC(C)(C(=O)O)N(Cc1ccc(-c2cccc(C(F)(F)F)c2)o1)C(=O)c1ccc(Cl)cc1Cl [compound #147, (2s)-2-{(2,4-Dichloro-benzoyl)-[5-(3-trifluoromethyl-phenyl)-furan-2-ylmethyl]-amino}-2-methyl-propionic acid] |
| < 5 µM | O=C(O)[C@H](Cc1ccccc1)N(Cc1cnc(-c2cccc(C(F)(F)F)c2)s1)C(=O)c1ccc(Cl)cc1Cl [compound #148, (2s)-2-{(2,4-Dichloro-benzoyl)-[2-(3-trifluoromethyl-phenyl)-thiazol-5-ylmethyl]-amino}-3-phenyl-propionic acid] |
| < 5 µM | O=C(O)[C@H](Cc1ccccc1)N(Cc1csc([N+](=O)[O-])c1)C(=O)c1ccc(Cl)cc1Cl [compound #149, (2s)-2-[(2,4-Dichloro-benzoyl)-(5-nitro-thiophen-3-ylmethyl)-amino]-3-phenyl-propionic acid] |
| < 5 µM | CS(=O)(=O)c1ccc(CN(C(=O)c2ccc(Cl)cc2Cl)[C@@H](Cc2ccccc2)C(=O)O)cc1 [compound #150, (2s)-2-[(2,4-Dichloro-benzoyl)-(4-methanesulfonyl-benzyl)-amino]-3-phenyl-propionic acid] |
| < 5 µM | COc1cccc(CN(C(=O)c2ccc(Cl)cc2Cl)[C@@H](Cc2ccccc2)C(=O)O)c1 [compound #151, (2s)-2-[(2,4-Dichloro-benzoyl)-(3-methoxy-benzyl)-amino]-3-phenyl-propionic acid] |
| < 5 µM | Cc1cccc(CN(C(=O)c2ccc(Cl)cc2Cl)[C@@H](Cc2ccccc2)C(=O)O)c1 [compound #152, (2s)-2-[(2,4-Dichloro-benzoyl)-(3-methyl-benzyl)-amino]-3-phenyl-propionic acid] |
| 5 to 20 µM | Cn1nc(C(F)(F)F)c(CN(C(=O)c2ccc(Cl)cc2Cl)[C@@H](Cc2ccccc2)C(=O)O)c1Oc1cccc(Cl)c1 [compound #153, (2s)-2-[[5-(3-Chloro-phenoxy)-1-methyl-3-trifluoromethyl-1h-pyrazol-4-ylmethyl]-(2,4-dichloro-benzoyl)-amino]-3-phenyl-propionic acid] |

| IC50 | Compound |
| --- | --- |
| < 5 µM | O=C(O)[C@H](Cc1ccccc1)N(Cc1sccc1-c1cc(F)cc(F)c1)C(=O)c1ccc(Cl)cc1Cl [compound #154, (2s)-2-{(2,4-Dichloro-benzoyl)-[3-(3,5-difluoro-phenyl)-thiophen-2-ylmethyl]-amino}-3-phenyl-propionic acid] |
| < 5 µM | O=C(O)[C@H](Cc1ccccc1)N(Cc1sccc1-c1ccc(Cl)c(Cl)c1)C(=O)c1ccc(Cl)cc1Cl [compound #155, (2s)-2-{(2,4-Dichloro-benzoyl)-[3-(3,4-dichloro-phenyl)-thiophen-2-ylmethyl]-amino}-3-phenyl-propionic acid] |
| 5 to 20 µM | O=C(O)[C@H](Cc1ccccc1)N(Cc1sccc1-c1ccc(Cl)c(F)c1)C(=O)c1ccc(Cl)cc1Cl [compound #156, (2s)-2-[[3-(4-Chloro-3-fluoro-phenyl)-thiophen-2-ylmethyl]-(2,4-dichloro-benzoyl)-amino]-3-phenyl-propionic acid] |
| 5 to 20 µM | O=C(O)[C@H](Cc1ccccc1)N(Cc1sccc1-c1ccc(Cl)cc1Cl)C(=O)c1ccc(Cl)cc1Cl [compound #157, (2s)-2-{(2,4-Dichloro-benzoyl)-[3-(2,4-dichloro-phenyl)-thiophen-2-ylmethyl]-amino}-3-phenyl-propionic acid] |
| < 5 µM | Cc1cccc(-c2ccsc2CN(C(=O)c2ccc(Cl)cc2Cl)[C@@H](Cc2ccccc2)C(=O)O)c1 [compound #158, (2s)-2-[(2,4-Dichloro-benzoyl)-(3-m-tolyl-thiophen-2-ylmethyl)-amino]-3-phenyl-propionic acid] |
| 5 to 20 µM | CCOC(=O)c1ccccc1-c1ccsc1CN(C(=O)c1ccc(Cl)cc1Cl)[C@@H](Cc1ccccc1)C(=O)O [compound #159, (2s)-2-(2-{[(1s-1-Carboxy-2-phenyl-ethyl)-(2,4-dichloro-benzoyl)-amino]-methyl}-thiophen-3-yl)-benzoic acid ethyl ester] |
| < 5 µM | CCOC(=O)c1ccc(-c2ccsc2CN(C(=O)c2ccc(Cl)cc2Cl)[C@@H](Cc2ccccc2)C(=O)O)cc1 [compound #160, (2s)-4-(2-{[(1s-1-Carboxy-2-phenyl-ethyl)-(2,4-dichloro-benzoyl)-amino]-methyl}-thiophen-3-yl)-benzoic acid ethyl ester] |
| 5 to 20 µM | O=C(O)[C@H](Cc1ccccc1)N(Cc1sccc1-c1cccc(F)c1)C(=O)c1ccc(Cl)cc1Cl [compound #161, (2s)-2-{(2,4-Dichloro-benzoyl)-[3-(3-fluoro-phenyl)-thiophen-2-ylmethyl]-amino}-3-phenyl-propionic acid] |
| < 5 µM | N#Cc1cccc(-c2ccsc2CN(C(=O)c2ccc(Cl)cc2Cl)[C@@H](Cc2ccccc2)C(=O)O)c1 [compound #162, (2s)-2-[[3-(3-Cyano-phenyl)-thiophen-2-ylmethyl]-(2,4-dichloro-benzoyl)-amino]-3-phenyl-propionic acid] |
| 5 to 20 µM | O=C(O)C(c1cccs1)N(Cc1ccc(-c2cccc(C(F)(F)F)c2)o1)C(=O)c1ccc(Cl)cc1Cl (centres unmarked) [compound #163, {(2,4-Dichloro-benzoyl)-[5-(3-trifluoromethyl-phenyl)-furan-2-ylmethyl]-amino}-thiophen-2-yl-acetic acid] |
| 5 to 20 µM | CC(C)(C)OC(=O)N1CCC[C@H]1CN(C(=O)c1ccc(Cl)cc1Cl)[C@@H](Cc1ccccc1)C(=O)O [compound #164, L-2-{[(1-Carboxy-2-phenyl-ethyl)-(2,4-dichloro-benzoyl)-amino]-methyl}-pyrrolidine-1-carboxylic acid #tert!-butyl ester] |
| 5 to 20 µM | CC(C)(C)OC(=O)N1CCC[C@@H]1CN(C(=O)c1ccc(Cl)cc1Cl)[C@@H](Cc1ccccc1)C(=O)O [compound #165, d-2-{[(1-carboxy-2-phenyl-ethyl)-(2,4-dichloro-benzoyl)-amino]-methyl}-pyrrolidine-1-carboxylic acid #tert!-butyl ester] |
| 5 to 20 µM | O=C(O)[C@H](Cc1ccccc1)N(C(=O)c1ccc(Cl)cc1Cl)C1CCN(C(=O)OCc2ccccc2)CC1 [compound #166, 4-[(1-Carboxy-2-phenyl-ethyl)-(2,4-dichloro-benzoyl)-amino]-piperidine-1-carboxylic acid benzyl ester] |
| 5 to 20 µM | O=C(O)[C@H](Cc1ccccc1)N(C[C@@H]1CCCN1)C(=O)c1ccc(Cl)cc1Cl [compound #167, 1-2-[(2,4-Dichloro-benzoyl)-pyrrolidin-2-ylmethyl-amino]-3-phenyl-propionic acid] |
| 5 to 20 µM | O=C(O)[C@H](Cc1ccccc1)N(Cc1cccnc1)C(=O)c1ccc(Cl)cc1Cl [compound #170, 2-[(2,4-Dichloro-benzoyl)-pyridin-3-ylmethyl-amino]-3-phenyl-propionic acid] |
| 5 to 20 µM | O=C(O)C(Cc1ccccc1)N(Cc1ccc(C(F)(F)F)cc1)C(=O)c1ccc(Cl)cc1Cl (centres unmarked) [compound #171, 2-[(2,4-Dichloro-benzoyl)-(4-trifluoromethyl-benzyl)-amino]-3-phenyl-propionic acid] |
